According to a melting point compilation (Tetko et al.; mined from patent text by program, amines drawn as free bases though some values may be those of a salt):

Row | SMILES | melting point [°C]
1 | CC(C)(C)OC(=O)Nc1cc(OCC#N)c(I)cc1[N+](=O)[O-] | 125
2 | CCNC(=O)Oc1cnn(C(C)(C)C)c1 | 77
3 | COC(=O)c1cc2c(nc1C(=O)OC)SCC2 | 102 to 104
4 | COc1ccc(C=Cc2ccc([N+](=O)[O-])cc2C(F)(F)F)cc1 | 120 to 123
5 | O=C(Nc1cccnc1)N1CCN(c2cncc(-c3ccc(F)cc3F)n2)CC1 | 155 to 156
6 | CCCCCCCc1ccc(C(=O)c2ccc(C(=O)O)cc2)cc1 | 181
7 | O=C(CCn1c2ccc(O)cc2c2c3c(c(-c4ccccc4Cl)cc21)C(=O)NC3=O)NS(=O)(=O)c1ccccc1 | 291 to 293
8 | NCC1Cc2cc(C(F)(F)F)cc(-c3ccoc3)c2O1 (centres undefined) | > 250
9 | CSc1nc(Cl)c(-c2c(F)cccc2Cl)c(NC(C)C)n1 | 94 to 98
10 | Cc1ccc(CNc2c(NC(C)(C)C)c(=O)c2=O)c(C)c1 | 228 to 229
11 | COc1c(C)c(C)c2c(c1C)C(c1ccc(CCCCCCC(=O)O)cc1)C(C)(C)O2 (centres undefined) | 88 to 89
12 | CCOC(=S)c1c(CC)nc(C)nc1NCCc1ccc(OC)c(OC)c1 | 52 to 53
13 | O=C(O)CCSC1c2ccccc2COc2ccc(OCc3ccc4ccc(OC(F)F)cc4n3)cc21 (centres undefined) | 180 to 184
14 | Oc1cnc2[nH]ccc2c1 | 206 to 209
15 | CC(C)(C)c1cc(C(CCc2ccccc2)NCP(=O)(O)O)cc(C(C)(C)C)c1O (centres undefined) | 162 to 169
16 | O=C(O)c1ccc(CN([C@@H](CO)c2ccccc2)S(=O)(=O)c2ccc(Cl)cc2)cc1 | 85 to 87
17 | Cc1ccc2c(c1)C=Cc1cc(C)ccc1C2c1cn(-c2ccnc(N3C[C@H](O)C[C@H]3C(=O)O)n2)c(=O)[nH]c1=O | 208 to 210
18 | Cc1nc(Cn2c(=O)sc3cc(F)ccc32)no1 | 142 to 144
19 | CNC(COc1ccc(C2C(=O)Oc3c2cc(C(C)(C)C)cc3C(C)(C)C)cc1)C(=O)O (centres undefined) | 115 to 121
20 | O=C1Cc2ccccc2N1NCCCc1ccncc1F | 114 to 116
21 | C[Si](Cn1nc[nH]c1=S)(c1ccccc1F)c1ccccc1F | 105
22 | COC(=O)c1ccc2[nH]c(C(=O)OCc3ccccc3)cc2c1 | 128 to 129

The next lines start with the values.

Row | melting point [°C] | SMILES
23 | 150 to 153 | O=C1NCCCN1C1CCN(CC(O)COc2ccccc2Cl)CC1 (centres undefined)
24 | 113 | CCOC(=O)c1c(O)c2cc(C)ccc2n(Cc2ccccc2)c1=O
25 | 172 to 174 | C[C@@H]1S[C@@H](C(=O)Nc2ccc(CN3CCOCC3)cc2)Cc2cc3c(cc2C1=O)OCO3
26 | 119 | CC(CC(C)C1CCC2C3C(=O)CC4CC(=O)CCC4(C)C3CCC12C)C(=O)O (centres undefined)
27 | 227 | CC(C)n1c(=O)c(C(=O)NCC2CCN(CC3(O)CCOCC3)CC2)cc2c(Cl)cccc21
28 | 114 to 119 | COC(=O)c1c[nH]c(Sc2ccccc2C)c1
29 | 85 to 95 | Nc1nc2c(s1)CCN(CC=Cc1cccc(O)c1)CC2
30 | 181 to 182 | CC(C)c1ccc(-c2coc3cc(O)c(O)cc3c2=O)cc1
31 | 93 to 99 | COc1cc(N2CCCN(C[C@H](O)CO)CC2)ccc1Nc1ncc2ccc(-c3ccccc3N(C)S(C)(=O)=O)n2n1
32 | 196 to 197 | CC(C)=NOCc1nc2c(N)nc3cc(-c4ccccc4)cnc3c2n1CC(C)C
33 | 66 to 66.5 | COc1ccc(C2CCN(C(=O)C(N)=O)CC2)cc1OC1CCCC1
34 | 80 to 89 | CC(C)NC(=O)N1C2=NC(C)(C)N(C(C)C)C(=O)N2c2ccccc21
35 | 135 to 137 | COc1ccccc1N1CCN(CCCNC(=O)c2cccc3c(=O)c(C)c(C4CCCC4)oc23)CC1
36 | 119 to 120 | COCC1CN(c2ccc3cc(OCC4CC4)ccc3c2)C(=O)O1 (centres undefined)
37 | 101 to 108 | CC(C)c1ccc2c(c1)OCc1ccc(C#N)cc1C2=O
38 | 142 to 143 | COc1cccc(NC(=O)c2ccccc2C)c1
39 | 192 to 194 | O=C(O)c1cc(=O)c2cc(OC(F)(F)F)ccc2o1
